Measured values as given in PubChem BioAssay (NCI).
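Test compounds were applied to cells in 96-well plates for 48 hours at 5 doses. TGI denotes the concentration required for complete inhibition of growth.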

Columns and labels:
Experiment in all cases: NCI-60 cell line screen, 48 h
IGROV1 ovarian = system: IGROV1 ovarian
BT-549 breast = system: BT-549 breast
U251 CNS = system: U251 CNS
HCC-2998 colon = system: HCC-2998 colon
786-0 renal = system: 786-0 renal
RXF 393 renal = system: RXF 393 renal
HCT-15 colon = system: HCT-15 colon
HT29 colon = system: HT29 colon
T-47D breast = system: T-47D breast
SK-MEL-5 melanoma = system: SK-MEL-5 melanoma
MDA-MB-435 = system: MDA-MB-435
NCI/ADR-RES ovarian = system: NCI/ADR-RES ovarian
ACHN renal = system: ACHN renal
PC-3 prostate = system: PC-3 prostate
HOP-92 NSCLC = system: HOP-92 NSCLC
OVCAR-5 ovarian = system: OVCAR-5 ovarian
UACC-62 melanoma = system: UACC-62 melanoma
SF-295 CNS = system: SF-295 CNS
OVCAR-8 ovarian = system: OVCAR-8 ovarian
UACC-257 melanoma = system: UACC-257 melanoma
LOX IMVI melanoma = system: LOX IMVI melanoma
MOLT-4 leukemia = system: MOLT-4 leukemia
EKVX NSCLC = system: EKVX NSCLC
HOP-62 NSCLC = system: HOP-62 NSCLC
MCF7 breast = system: MCF7 breast
UO-31 renal = system: UO-31 renal
A549 NSCLC = system: A549 NSCLC
SNB-19 CNS = system: SNB-19 CNS
K-562 leukemia = system: K-562 leukemia
SNB-75 CNS = system: SNB-75 CNS
TK-10 renal = system: TK-10 renal
KM12 colon = system: KM12 colon
SN12C renal = system: SN12C renal
A498 renal = system: A498 renal
HCT-116 colon = system: HCT-116 colon
SK-MEL-28 melanoma = system: SK-MEL-28 melanoma
CCRF-CEM leukemia = system: CCRF-CEM leukemia
SK-MEL-2 melanoma = system: SK-MEL-2 melanoma
SK-OV-3 ovarian = system: SK-OV-3 ovarian
M14 melanoma = system: M14 melanoma
CAKI-1 renal = system: CAKI-1 renal
MDA-MB-231 breast = system: MDA-MB-231 breast
MDA-N = system: MDA-N
NCI-H226 lung = system: NCI-H226 lung
COLO 205 colon = system: COLO 205 colon
DU-145 prostate = system: DU-145 prostate
OVCAR-3 ovarian = system: OVCAR-3 ovarian
RPMI-8226 leukemia = system: RPMI-8226 leukemia
NCI-H23 lung = system: NCI-H23 lung
OVCAR-4 ovarian = system: OVCAR-4 ovarian
HS 578T breast = system: HS 578T breast
SW-620 colon = system: SW-620 colon
SF-268 CNS = system: SF-268 CNS
HL-60(TB) leukemia = system: HL-60(TB) leukemia
NCI-H460 lung = system: NCI-H460 lung
SR leukemia = system: SR leukemia
SF-539 CNS = system: SF-539 CNS

## Cc1ccsc1/C=N/Nc1nncc2ccccc12
IGROV1 ovarian
  TGI: > 100 µM
BT-549 breast
  TGI: > 100 µM
U251 CNS
  TGI: > 100 µM
HCC-2998 colon
  TGI: > 100 µM
786-0 renal
  TGI: > 100 µM
RXF 393 renal
  TGI: > 100 µM
HCT-15 colon
  TGI: > 100 µM
HT29 colon
  TGI: > 100 µM
T-47D breast
  TGI: > 100 µM
SK-MEL-5 melanoma
  TGI: > 100 µM
MDA-MB-435
  TGI: > 100 µM
NCI/ADR-RES ovarian
  TGI: > 100 µM
ACHN renal
  TGI: > 100 µM
PC-3 prostate
  TGI: > 100 µM
HOP-92 NSCLC
  TGI: > 100 µM
OVCAR-5 ovarian
  TGI: > 100 µM
UACC-62 melanoma
  TGI: > 100 µM
SF-295 CNS
  TGI: > 100 µM
OVCAR-8 ovarian
  TGI: > 100 µM
UACC-257 melanoma
  TGI: > 100 µM
LOX IMVI melanoma
  TGI: > 100 µM
MOLT-4 leukemia
  TGI: > 100 µM
EKVX NSCLC
  TGI: > 100 µM
HOP-62 NSCLC
  TGI: > 100 µM
MCF7 breast
  TGI: > 100 µM
UO-31 renal
  TGI: > 100 µM
A549 NSCLC
  TGI: > 100 µM
SNB-19 CNS
  TGI: > 100 µM
K-562 leukemia
  TGI: > 100 µM
SNB-75 CNS
  TGI: > 100 µM
TK-10 renal
  TGI: > 100 µM
KM12 colon
  TGI: > 100 µM
SN12C renal
  TGI: > 100 µM
A498 renal
  TGI: > 100 µM
HCT-116 colon
  TGI: > 100 µM
SK-MEL-28 melanoma
  TGI: > 100 µM
CCRF-CEM leukemia
  TGI: > 100 µM
SK-MEL-2 melanoma
  TGI: 92 µM
SK-OV-3 ovarian
  TGI: > 100 µM
M14 melanoma
  TGI: > 100 µM
CAKI-1 renal
  TGI: > 100 µM
MDA-MB-231 breast
  TGI: > 100 µM
MDA-N
  TGI: > 100 µM
NCI-H226 lung
  TGI: > 100 µM
COLO 205 colon
  TGI: > 100 µM
DU-145 prostate
  TGI: > 100 µM
OVCAR-3 ovarian
  TGI: > 100 µM
RPMI-8226 leukemia
  TGI: > 100 µM
NCI-H23 lung
  TGI: > 100 µM
OVCAR-4 ovarian
  TGI: > 100 µM
HS 578T breast
  TGI: > 100 µM
SW-620 colon
  TGI: > 100 µM
SF-268 CNS
  TGI: > 100 µM

## CCCCCCCN1C(=O)C(O)(c2ccc(C3(O)C(=O)N(CCCCCCC)c4ccccc43)s2)c2ccccc21 (stereo unspecified)
IGROV1 ovarian
  TGI: 4.28 µM
BT-549 breast
  TGI: 4.12 µM
U251 CNS
  TGI: 3.17 µM
HCC-2998 colon
  TGI: 3.44 µM
786-0 renal
  TGI: 3.61 µM
HCT-15 colon
  TGI: 4.42 µM
HT29 colon
  TGI: 3.28 µM
T-47D breast
  TGI: 15 µM
SK-MEL-5 melanoma
  TGI: 3.26 µM
MDA-MB-435
  TGI: 3.87 µM
ACHN renal
  TGI: 4.92 µM
PC-3 prostate
  TGI: 3.8 µM
HOP-92 NSCLC
  TGI: 3.55 µM
OVCAR-5 ovarian
  TGI: 3.24 µM
UACC-62 melanoma
  TGI: 4.06 µM
SF-295 CNS
  TGI: 3.42 µM
OVCAR-8 ovarian
  TGI: 4.41 µM
UACC-257 melanoma
  TGI: 4.42 µM
LOX IMVI melanoma
  TGI: 3.51 µM
MOLT-4 leukemia
  TGI: 4.16 µM
HL-60(TB) leukemia
  TGI: 3.42 µM
HOP-62 NSCLC
  TGI: 3.41 µM
MCF7 breast
  TGI: 5.7 µM
UO-31 renal
  TGI: 3.14 µM
SNB-19 CNS
  TGI: 8.7 µM
K-562 leukemia
  TGI: 7.67 µM
SNB-75 CNS
  TGI: 17.3 µM
TK-10 renal
  TGI: 5.67 µM
KM12 colon
  TGI: 3.36 µM
SN12C renal
  TGI: 3.42 µM
HCT-116 colon
  TGI: 3.18 µM
SK-MEL-28 melanoma
  TGI: 3.98 µM
CCRF-CEM leukemia
  TGI: 27 µM
SK-MEL-2 melanoma
  TGI: 2.93 µM
SK-OV-3 ovarian
  TGI: 2.2 µM
M14 melanoma
  TGI: 3.69 µM
MDA-MB-231 breast
  TGI: 4.12 µM
NCI-H460 lung
  TGI: 3.49 µM
MDA-N
  TGI: 4.06 µM
COLO 205 colon
  TGI: 3.21 µM
DU-145 prostate
  TGI: 3.29 µM
RPMI-8226 leukemia
  TGI: 4.69 µM
SR leukemia
  TGI: 18.4 µM
OVCAR-4 ovarian
  TGI: 3.77 µM
HS 578T breast
  TGI: 5.31 µM
SW-620 colon
  TGI: 4.55 µM
SF-539 CNS
  TGI: 3.34 µM
SF-268 CNS
  TGI: 3.97 µM
